PubChem BioAssay (NCI)
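Exposure lasted 48 hours, with cells grown in 96-well plates and compounds tested at five concentrations. TGI: total growth inhibition.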

Tests used:
Test in all cases: NCI tumour cell line growth inhibition, 48 h
SK-MEL-28 melanoma = test system: SK-MEL-28 melanoma
HOP-92 NSCLC = test system: HOP-92 NSCLC
DLD-1 colon = test system: DLD-1 colon
NCI-H522 lung = test system: NCI-H522 lung
RXF 393 renal = test system: RXF 393 renal
M14 melanoma = test system: M14 melanoma
EKVX NSCLC = test system: EKVX NSCLC
HCC-2998 colon = test system: HCC-2998 colon
U251 CNS = test system: U251 CNS
A498 renal = test system: A498 renal
LOX IMVI melanoma = test system: LOX IMVI melanoma
HL-60(TB) leukemia = test system: HL-60(TB) leukemia
HCT-15 colon = test system: HCT-15 colon
K-562 leukemia = test system: K-562 leukemia
CCRF-CEM leukemia = test system: CCRF-CEM leukemia
TK-10 renal = test system: TK-10 renal
XF 498 CNS = test system: XF 498 CNS
HOP-62 NSCLC = test system: HOP-62 NSCLC
MALME-3M melanoma = test system: MALME-3M melanoma
DMS 114 small cell lung = test system: DMS 114 small cell lung
SNB-78 CNS = test system: SNB-78 CNS
KM12 colon = test system: KM12 colon
SNB-19 CNS = test system: SNB-19 CNS
SF-295 CNS = test system: SF-295 CNS
UACC-257 melanoma = test system: UACC-257 melanoma
UO-31 renal = test system: UO-31 renal
SK-OV-3 ovarian = test system: SK-OV-3 ovarian
SF-268 CNS = test system: SF-268 CNS
DMS 273 small cell lung = test system: DMS 273 small cell lung
SW-620 colon = test system: SW-620 colon
NCI-H23 lung = test system: NCI-H23 lung
SF-539 CNS = test system: SF-539 CNS
CAKI-1 renal = test system: CAKI-1 renal
A549 NSCLC = test system: A549 NSCLC
SN12C renal = test system: SN12C renal
KM20L2 colon = test system: KM20L2 colon
SK-MEL-2 melanoma = test system: SK-MEL-2 melanoma
COLO 205 colon = test system: COLO 205 colon
HCT-116 colon = test system: HCT-116 colon
OVCAR-4 ovarian = test system: OVCAR-4 ovarian
ACHN renal = test system: ACHN renal
RXF-631 renal = test system: RXF-631 renal
MOLT-4 leukemia = test system: MOLT-4 leukemia
RPMI-8226 leukemia = test system: RPMI-8226 leukemia
HT29 colon = test system: HT29 colon
SK-MEL-5 melanoma = test system: SK-MEL-5 melanoma
NCI-H460 lung = test system: NCI-H460 lung
HOP-18 NSCLC = test system: HOP-18 NSCLC
OVCAR-8 ovarian = test system: OVCAR-8 ovarian
OVCAR-3 ovarian = test system: OVCAR-3 ovarian
IGROV1 ovarian = test system: IGROV1 ovarian
NCI-H226 lung = test system: NCI-H226 lung
LXFL 529 NSCLC = test system: LXFL 529 NSCLC
786-0 renal = test system: 786-0 renal
OVCAR-5 ovarian = test system: OVCAR-5 ovarian
SNB-75 CNS = test system: SNB-75 CNS
UACC-62 melanoma = test system: UACC-62 melanoma
P388/ADR leukemia = test system: P388/ADR leukemia
SN12K1 renal = test system: SN12K1 renal
M19-MEL melanoma = test system: M19-MEL melanoma
MCF7 breast = test system: MCF7 breast
NCI/ADR-RES ovarian = test system: NCI/ADR-RES ovarian
P388 leukemia = test system: P388 leukemia
HS 578T breast = test system: HS 578T breast
SR leukemia = test system: SR leukemia
T-47D breast = test system: T-47D breast
MDA-MB-231 breast = test system: MDA-MB-231 breast
MDA-N = test system: MDA-N
DU-145 prostate = test system: DU-145 prostate
MDA-MB-435 = test system: MDA-MB-435
PC-3 prostate = test system: PC-3 prostate
BT-549 breast = test system: BT-549 breast

CNC(C)Cc1ccccc1OC (configuration not stated)
TGI (SK-MEL-28 melanoma): > 100 µM
TGI (HOP-92 NSCLC): > 100 µM
TGI (DLD-1 colon): > 100 µM
TGI (NCI-H522 lung): > 100 µM
TGI (RXF 393 renal): > 100 µM
TGI (M14 melanoma): > 100 µM
TGI (EKVX NSCLC): > 100 µM
TGI (HCC-2998 colon): > 100 µM
TGI (U251 CNS): > 100 µM
TGI (A498 renal): > 100 µM
TGI (LOX IMVI melanoma): > 100 µM
TGI (HL-60(TB) leukemia): > 100 µM
TGI (HCT-15 colon): > 100 µM
TGI (K-562 leukemia): > 100 µM
TGI (CCRF-CEM leukemia): > 100 µM
TGI (TK-10 renal): > 100 µM
TGI (XF 498 CNS): > 100 µM
TGI (HOP-62 NSCLC): > 100 µM
TGI (MALME-3M melanoma): > 100 µM
TGI (DMS 114 small cell lung): > 100 µM
TGI (SNB-78 CNS): > 100 µM
TGI (KM12 colon): > 100 µM
TGI (SNB-19 CNS): > 100 µM
TGI (SF-295 CNS): > 100 µM
TGI (UACC-257 melanoma): > 100 µM
TGI (UO-31 renal): > 100 µM
TGI (SK-OV-3 ovarian): > 100 µM
TGI (SF-268 CNS): > 100 µM
TGI (DMS 273 small cell lung): > 100 µM
TGI (SW-620 colon): > 100 µM
TGI (NCI-H23 lung): > 100 µM
TGI (SF-539 CNS): > 100 µM
TGI (CAKI-1 renal): > 100 µM
TGI (A549 NSCLC): > 100 µM
TGI (SN12C renal): > 100 µM
TGI (KM20L2 colon): > 100 µM
TGI (SK-MEL-2 melanoma): > 100 µM
TGI (COLO 205 colon): > 100 µM
TGI (HCT-116 colon): > 100 µM
TGI (OVCAR-4 ovarian): > 100 µM
TGI (ACHN renal): > 100 µM
TGI (RXF-631 renal): > 100 µM
TGI (MOLT-4 leukemia): > 100 µM
TGI (RPMI-8226 leukemia): > 100 µM
TGI (HT29 colon): > 100 µM
TGI (SK-MEL-5 melanoma): > 100 µM
TGI (NCI-H460 lung): > 100 µM
TGI (HOP-18 NSCLC): > 100 µM
TGI (OVCAR-8 ovarian): > 100 µM
TGI (OVCAR-3 ovarian): > 100 µM
TGI (IGROV1 ovarian): > 100 µM
TGI (NCI-H226 lung): > 100 µM
TGI (LXFL 529 NSCLC): > 100 µM
TGI (786-0 renal): > 100 µM
TGI (OVCAR-5 ovarian): > 100 µM
TGI (SNB-75 CNS): > 100 µM
TGI (UACC-62 melanoma): > 100 µM

N=C(N)SCc1cccc([N+](=O)[O-])c1
TGI (SK-MEL-28 melanoma): 98.9 µM
TGI (P388/ADR leukemia): 41.2 µM
TGI (HOP-92 NSCLC): 60.9 µM
TGI (DLD-1 colon): 97.6 µM
TGI (NCI-H522 lung): 18.2 µM
TGI (RXF 393 renal): 61.4 µM
TGI (EKVX NSCLC): > 100 µM
TGI (HCC-2998 colon): > 100 µM
TGI (U251 CNS): 97.3 µM
TGI (A498 renal): > 74 µM
TGI (LOX IMVI melanoma): > 100 µM
TGI (SN12K1 renal): 98.6 µM
TGI (HL-60(TB) leukemia): 43.6 µM
TGI (HCT-15 colon): > 100 µM
TGI (K-562 leukemia): > 62.3 µM
TGI (CCRF-CEM leukemia): > 85.9 µM
TGI (XF 498 CNS): 71.8 µM
TGI (HOP-62 NSCLC): > 78.1 µM
TGI (MALME-3M melanoma): > 76.6 µM
TGI (DMS 114 small cell lung): 90.7 µM
TGI (SNB-78 CNS): > 100 µM
TGI (KM12 colon): > 31.6 µM
TGI (SF-295 CNS): > 100 µM
TGI (UACC-257 melanoma): > 75 µM
TGI (M19-MEL melanoma): > 100 µM
TGI (UO-31 renal): > 77.8 µM
TGI (SK-OV-3 ovarian): > 81.4 µM
TGI (SF-268 CNS): > 100 µM
TGI (DMS 273 small cell lung): > 100 µM
TGI (SW-620 colon): > 100 µM
TGI (NCI-H23 lung): > 83 µM
TGI (SF-539 CNS): 68.3 µM
TGI (CAKI-1 renal): 74.1 µM
TGI (MCF7 breast): > 83.8 µM
TGI (A549 NSCLC): > 100 µM
TGI (SN12C renal): > 96.1 µM
TGI (NCI/ADR-RES ovarian): 48.3 µM
TGI (KM20L2 colon): > 90.6 µM
TGI (SK-MEL-2 melanoma): > 73.7 µM
TGI (COLO 205 colon): 47.9 µM
TGI (HCT-116 colon): > 83.7 µM
TGI (OVCAR-4 ovarian): > 83.1 µM
TGI (P388 leukemia): 33.6 µM
TGI (MOLT-4 leukemia): > 91.2 µM
TGI (RPMI-8226 leukemia): 59.1 µM
TGI (HT29 colon): 85.1 µM
TGI (SK-MEL-5 melanoma): > 100 µM
TGI (NCI-H460 lung): > 100 µM
TGI (HOP-18 NSCLC): 89.1 µM
TGI (OVCAR-8 ovarian): > 67 µM
TGI (OVCAR-3 ovarian): 39.9 µM
TGI (IGROV1 ovarian): > 100 µM
TGI (NCI-H226 lung): 67.2 µM
TGI (OVCAR-5 ovarian): > 100 µM
TGI (SNB-75 CNS): 89 µM
TGI (UACC-62 melanoma): > 100 µM

COC(=O)N/N=C(/c1nc2ccc([N+](=O)[O-])cc2[nH]c1=O)C(O)c1ccc(OC)c(OC)c1 (configuration not stated)
TGI (SK-MEL-28 melanoma): > 100 µM
TGI (HOP-92 NSCLC): > 100 µM
TGI (DLD-1 colon): > 100 µM
TGI (NCI-H522 lung): > 100 µM
TGI (RXF 393 renal): > 100 µM
TGI (HS 578T breast): > 100 µM
TGI (M14 melanoma): > 100 µM
TGI (EKVX NSCLC): > 100 µM
TGI (HCC-2998 colon): > 100 µM
TGI (U251 CNS): > 100 µM
TGI (A498 renal): > 100 µM
TGI (SR leukemia): 39 µM
TGI (LOX IMVI melanoma): > 61.7 µM
TGI (HL-60(TB) leukemia): > 100 µM
TGI (T-47D breast): > 100 µM
TGI (HCT-15 colon): > 78.4 µM
TGI (K-562 leukemia): > 100 µM
TGI (CCRF-CEM leukemia): > 100 µM
TGI (TK-10 renal): > 100 µM
TGI (XF 498 CNS): > 100 µM
TGI (HOP-62 NSCLC): > 100 µM
TGI (MALME-3M melanoma): > 100 µM
TGI (MDA-MB-231 breast): > 100 µM
TGI (DMS 114 small cell lung): 51.3 µM
TGI (MDA-N): > 100 µM
TGI (SNB-78 CNS): > 100 µM
TGI (KM12 colon): > 100 µM
TGI (SNB-19 CNS): > 100 µM
TGI (SF-295 CNS): > 100 µM
TGI (UACC-257 melanoma): > 100 µM
TGI (M19-MEL melanoma): > 100 µM
TGI (UO-31 renal): > 100 µM
TGI (SK-OV-3 ovarian): > 100 µM
TGI (SF-268 CNS): > 100 µM
TGI (DMS 273 small cell lung): 63.7 µM
TGI (SW-620 colon): > 100 µM
TGI (NCI-H23 lung): > 100 µM
TGI (SF-539 CNS): > 100 µM
TGI (CAKI-1 renal): > 100 µM
TGI (MCF7 breast): > 100 µM
TGI (A549 NSCLC): > 100 µM
TGI (DU-145 prostate): > 100 µM
TGI (SN12C renal): > 100 µM
TGI (NCI/ADR-RES ovarian): > 100 µM
TGI (KM20L2 colon): > 100 µM
TGI (SK-MEL-2 melanoma): > 100 µM
TGI (COLO 205 colon): > 76.9 µM
TGI (MDA-MB-435): > 100 µM
TGI (HCT-116 colon): > 100 µM
TGI (OVCAR-4 ovarian): > 100 µM
TGI (ACHN renal): > 100 µM
TGI (RXF-631 renal): > 100 µM
TGI (PC-3 prostate): > 100 µM
TGI (MOLT-4 leukemia): > 100 µM
TGI (RPMI-8226 leukemia): > 74.5 µM
TGI (HT29 colon): > 100 µM
TGI (BT-549 breast): > 100 µM
TGI (SK-MEL-5 melanoma): > 78.7 µM
TGI (NCI-H460 lung): > 100 µM
TGI (HOP-18 NSCLC): > 100 µM
TGI (OVCAR-8 ovarian): > 100 µM
TGI (OVCAR-3 ovarian): > 100 µM
TGI (IGROV1 ovarian): > 100 µM
TGI (NCI-H226 lung): > 100 µM
TGI (LXFL 529 NSCLC): > 100 µM
TGI (786-0 renal): > 100 µM
TGI (OVCAR-5 ovarian): > 100 µM
TGI (SNB-75 CNS): > 100 µM
TGI (UACC-62 melanoma): > 100 µM
